Source: patent publication US20110306035A1, “Methods and Compositions for Detection of a Pathogen, Disease, Medical Condition, or Biomarker Thereof” (priority 2008, published 2011)
“And” between values parts separate entries of the source, which are not always exact repeats. Equal entries are not always repeated.

Key:
COX enzyme = biological target: T1, COX enzyme (Coxsackievirus B5, UniProt Q03053); test: Assay optimization - solvent with COX enzyme (1:10); type: biochemical, Enterovirus (COX)
T1 construct: 3D structure modeling of enterovirus 3C protease with it substrate Camb2
Protocol: Various solvents were tested in order to optimize substrate solubility and stability. […] All the solvents tested were prepared at 0-10% concentrations in 2× reaction buffer and the final concentrations tested were 0-5%. […] Camb 2 was added to the final 2× buffer. For 1,2-Propanediol and 1,3-Propanediol, Camb 2 was first dissolved in the solvent at the appropriate concentration. The solvent+camb2 was then added to 3× reaction buffer to make a final 2× reaction buffer+2 uM camb2. […]
1,3-Propanediol with COX enzyme (1:10):

3C protease (EV assay) = test: Assay optimization - solvent (EV assay, Camb 2); type: biochemical, Enterovirus; conditions: for effect on reaction rate: all concentrations tested
Protocol: Various solvents were tested in order to optimize substrate solubility and stability. […] All the solvents tested were prepared at 0-10% concentrations in 2× reaction buffer and the final concentrations tested were 0-5%. […] Camb 2 was added to the final 2× buffer. For 1,2-Propanediol and 1,3-Propanediol, Camb 2 was first dissolved in the solvent at the appropriate concentration. The solvent+camb2 was then added to 3× reaction buffer to make a final 2× reaction buffer+2 uM camb2. All the experiments were performed in the TECAN Polarstar n=1 in triplicates.

[1] = biological target: T2, Recombinant protease from enterovirus strain Echo (Echovirus 30, UniProt Q9WN78); test: Enterovirus assay optimization with recombinant Echo protease (plates, tubes, buffer, Na2SO4, substrate concentration, diluent); type: biochemical; conditions: for Positive control, Average / Positive control: substrate stock diluted 1:8 in this diluent, 0.25 uM final, analysis 5-10 min; for Positive control: single repetition
T2 construct: Phosphoramidon was tested using the Echovirus 3C recombinant
Protocol: • Inhibitor Cocktail: Inhibitors cocktail I10 • Enzyme dilution buffer: −25 mM HEPES pH 7.5, 150 mM NaCl, 1 mM EDTA, 10% Glycerol, 0.5 mg/ml BSA, 1M Sucrose, 0.1% Sodium azid. • 2× reaction buffer, Buffer B: 50 mM HEPES, 10 mM EDTA, 10 mM EGTA, 1.2M Na2SO4, sodium azide 0.1%, pH 8.5 • Artificial CSF: NaCl 125 mM, KCl 2.5 mM, MgCl 1 mM, NaH2PO4 1.25 mM, CaCl2 2 mM, Glucose 2.5 mM, NaHCO3 25 mM, 0.1% Sodium azide, HEPES 25 mM, pH 7.45. • Enzyme: Recombinant protease from enterovirus strain “Echo” [dilution 1:18 • Substrate: Camb-2.3, 1 mM, Camb-2.4, 2 mM. (Different batches for the same Camb2 sequence) • HEPES Buffer: HEPES 25 mM • NB tubes: Sigma Cat #Z666505 • Amber tubes: USA scientific Inc. Cat. 1620-2707 • 96 well Plate: Dark bottom NB plate—Greiner Cat. 655900
• 1. Add artiCSF±HEPES buffer to plate • 2. Prepare 400 ul HEPES buffer±RB+substrate (camb2.3 and 2.4) in both amber and NB tubes. • 3. Add enzyme to wells • 4. Add HEPES buffer±RB+substrate to wells with multichannel pipette.
The reaction buffer is a part of the enterovirus test kit of the invention. The camb-2 substrate is dissolved in the reaction buffer. The reaction buffer contains different salts to allow the tested enzyme to work at the optimal conditions. The current reaction buffer composition is: HEPES pH 7.5, 300 mM NaCl, 10 mM EDTA, 10 mM EGTA, 10% Glycerol, 1.8M Na2SO4, 0.1% Sodium azide. The amount of salt in the reaction buffer is high and allows optimal enzymatic activity. However, under these conditions, substrate solubility is affected. Thus, the reaction buffer was improved to increase substrate solubility without reducing enzymatic activity of the tested 3C protease.
300 mM NaCl and 10% glycerol was removed from the reaction buffer and several reduced concentrations of Na2SO4 (starting at 0.9M) were tested in order to determine the minimal salt requirements of the assay (Tables 31-34). Experiments were repeated at least three times by two different scientists.
CSF sample was incubated with 50 nM Echo protease and 2× reaction buffer with 0.6M Na2SO4. Also included were 3 blanks and 9 positive control repetitions.
The effect of reduction in substrate (camb2) concentration and increase in measurement time was tested. The experiment was performed at a final substrate (camb2.5) concentrations of 1, 0.5, 0.25 and 0.125 μM and data analysis was made at different time intervals: 1.5-5, 5-12 and 5-22 min (FIGS. 27A-C).
Sodium sulfate generally has an ambivalent effect: it increase 3C protease activity and reduces substrate solubility. Once it was decided that the substrate concentration would be reduced to 0.25 uM and results analyzed at between 5-10 min, the Na2SO4 concentration was optimized. […] 0.6-0.4M Na2SO4 was tested under the new assay conditions.
• Data analysis was performed between 5-10 min. • The assay activity was measured in triplicates by three scientists. The results in Table 51 are the average of the three triplicates.
To examine the effect of substrate dilution in DMSO vs. DDW under the new assay conditions, substrate stock (1 mM in DMSO) was diluted 1:8 in DMSO or in DDW to yield the working stock. The working stocks were further diluted 1:250 in 2× RB for a concentration of 0.5 uM (0.25 uM final in the well).
The assay activity was measured in triplicates by three scientists. The results in Table 52 are the average of the three triplicates.

[2] = 1,2-propanediol 1% final, Table 50 Galaxy FLUOstar with nonbinding microplate
[3] = 1,2-propanediol 2.5% final, Table 49 TECAN with nonbinding microplate
[4] = 1,2-propanediol 2.5% final, Table 50 Galaxy FLUOstar with nonbinding microplate
[5] = 1,2-propanediol 4% final, Table 49 TECAN with nonbinding microplate
[6] = 1,2-propanediol 4% final, Table 50 Galaxy FLUOstar with nonbinding microplate
[7] = 1,2-propanediol 5% final, Table 49 TECAN with nonbinding microplate
[8] = 1,2-propanediol 5% final, Table 50 Galaxy FLUOstar with nonbinding microplate
[9] = 1,3-propanediol 1% final, Table 47 GalaxyFLUOstar, second sub-table
[10] = 1,3-propanediol 2.5% final, Table 47 GalaxyFLUOstar, second sub-table
[11] = 1,3-propanediol 2.5% final, Table 48 TECAN with nonbiding plate
[12] = 1,3-propanediol 4% final, Table 47 GalaxyFLUOstar, second sub-table
[13] = 1,3-propanediol 4% final, Table 48 TECAN with nonbiding plate
[14] = 1,3-propanediol 5% final, Table 47 GalaxyFLUOstar, first sub-table
[15] = 1,3-propanediol 5% final, Table 47 GalaxyFLUOstar, second sub-table
[16] = 1,3-propanediol 5% final, Table 48 TECAN with nonbiding plate
[17] = Acetonitrile 0.5% final, Table 43 Experiment 2
[18] = Acetonitrile 1% final, Table 42 Experiment 1
[19] = Acetonitrile 1% final, Table 43 Experiment 2
[20] = Acetonitrile 2.5% final, Table 42 Experiment 1
[21] = Acetonitrile 4% final, Table 42 Experiment 1
[22] = Acetonitrile 5% final, Table 42 Experiment 1
[23] = Isopropanol 1% final, Table 39 Experiment 1
[24] = Isopropanol 1% final, Table 40 Experiment 2
[25] = Isopropanol 2.5% final, Table 39 Experiment 1
[26] = Isopropanol 2.5% final, Table 40 Experiment 2
[27] = Isopropanol 4% final, Table 39 Experiment 1
[28] = Isopropanol 4% final, Table 40 Experiment 2
[29] = Isopropanol 5% final, Table 39 Experiment 1
[30] = Isopropanol 5% final, Table 40 Experiment 2

T1 sequence (Q03053 1541-1723): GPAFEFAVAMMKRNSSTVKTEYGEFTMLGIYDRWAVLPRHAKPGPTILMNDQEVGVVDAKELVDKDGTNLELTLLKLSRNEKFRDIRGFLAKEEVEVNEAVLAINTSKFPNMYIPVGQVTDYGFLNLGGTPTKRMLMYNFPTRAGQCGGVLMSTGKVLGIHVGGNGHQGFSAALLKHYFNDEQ
T2 sequence (Q9WN78 1550-1732): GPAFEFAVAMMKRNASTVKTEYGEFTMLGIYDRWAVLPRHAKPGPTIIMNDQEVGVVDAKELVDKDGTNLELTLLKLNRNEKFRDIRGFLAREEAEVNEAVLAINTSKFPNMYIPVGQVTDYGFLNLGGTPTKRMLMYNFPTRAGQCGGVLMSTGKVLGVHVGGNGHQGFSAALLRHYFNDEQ

## CC(O)CO (stereo not drawn) [1,2-propanediol, 1,2-Propanediol]
COX enzyme; 1,2-propanediol 1% final, Table 49 TECAN with nonbinding microplate
  Reaction rate Average P.C: 8588.13 RFU/min
COX enzyme; [2]
  % Loss: 9%
  Reaction rate Average P.C: 5689.6 RFU/min
COX enzyme; [3]
  % Loss: 20%
  Reaction rate Average P.C: 6521.1 RFU/min
COX enzyme; [4]
  % Loss: 22%
  Reaction rate Average P.C: 4838.97 RFU/min
COX enzyme; [5]
  % Loss: 30%
  Reaction rate Average P.C: 5013.13 RFU/min
COX enzyme; [6]
  % Loss: 30%
  Reaction rate Average P.C: 4291.04 RFU/min
COX enzyme; [7]
  % Loss: 44%
  Reaction rate Average P.C: 4509 RFU/min
COX enzyme; [8]
  % Loss: 47%
  Reaction rate Average P.C: 3278.19 RFU/min
COX enzyme; all concentrations tested except 1%
  effect on enzymatic activity: inhibited enzymatic activity

## OCCCO [1,3-propanediol, 1,3-Propanediol]
COX enzyme; 1,3-propanediol 1% final, Table 47 GalaxyFLUOstar, first sub-table
  Reaction rate Average P.C: 3948.19 RFU/min
COX enzyme; [9]
  % Loss: 20%
  Reaction rate Average P.C: 4125.89 RFU/min
COX enzyme; 1,3-propanediol 1% final, Table 48 TECAN with nonbiding plate
  Reaction rate Average P.C: 7620.53 RFU/min
COX enzyme; [10]
  % Loss: 11%
  Reaction rate Average P.C: 4491.13 RFU/min
COX enzyme; [11]
  % Loss: 36%
  Reaction rate Average P.C: 4681.05 RFU/min
COX enzyme; [12]
  % Loss: 42%
  Reaction rate Average P.C: 2956.26 RFU/min
COX enzyme; [13]
  % Loss: 2%
  Reaction rate Average P.C: 7238.7 RFU/min
COX enzyme; [14]
  % Loss: 10%
  Reaction rate Average P.C: 3072.45 RFU/min
COX enzyme; [15]
  % Loss: 47%
  Reaction rate Average P.C: 2389.47 RFU/min
COX enzyme; [16]
  % Loss: 20%
  Reaction rate Average P.C: 5929.86 RFU/min

## CC#N [Acetonitrile]
3C protease (EV assay); [17]
  % Loss: 7%
  Reaction rate Average P.C: 1257.5 RFU/min
3C protease (EV assay); [18]
  % Loss: 43%
  Reaction rate Average P.C: 1106.6 RFU/min
3C protease (EV assay); [19]
  % Loss: 25%
  Reaction rate Average P.C: 1002.48 RFU/min
3C protease (EV assay); [20]
  % Loss: 57%
  Reaction rate Average P.C: 846.73 RFU/min
3C protease (EV assay); [21]
  % Loss: 65%
  Reaction rate Average P.C: 706.1 RFU/min
3C protease (EV assay); [22]
  % Loss: 84%
  Reaction rate Average P.C: 308.48 RFU/min
3C protease (EV assay)
  effect on reaction rate: loss in reaction rate

## O [DDW]
[1]; substrate diluted with DDW
  reaction rate lower compared to DMSO: 25%
[1]
  Positive control, Average: 789.5 RFU/min
  Positive control: 747 ± 68 RFU/min and 832 ± 64 RFU/min

## C[S+](C)[O-] [DMSO]
[1]
  Positive control, Average: 1005 RFU/min
  Positive control: 1023 ± 36 RFU/min and 987 ± 126 RFU/min
3C protease (EV assay); DMSO 1% final, Table 41
  Reaction rate Average P.C: 1270 RFU/min
3C protease (EV assay); DMSO 2.5% final, Table 41
  % Loss: 7%
  Reaction rate Average P.C: 1139.26 RFU/min
3C protease (EV assay); DMSO 4% final, Table 41
  Reaction rate Average P.C: 1288 RFU/min
3C protease (EV assay)
  effect on reaction rate: no loss in reaction rate

## CC(C)O [Isopropanol]
3C protease (EV assay); 4 and 5% final
  salt precipitation in reaction buffer: salt precipitation formed
3C protease (EV assay); [23]
  % Loss: 45%
  Reaction rate Average P.C: 641.57 RFU/min
3C protease (EV assay); [24]
  % Loss: 35%
  Reaction rate Average P.C: 1047.42 RFU/min
3C protease (EV assay); [25]
  % Loss: 3%
  Reaction rate Average P.C: 1143.93 RFU/min
3C protease (EV assay); [26]
  % Loss: 50%
  Reaction rate Average P.C: 806 RFU/min
3C protease (EV assay); [27]
  % Loss: 100%
  Reaction rate Average P.C: −2.7 RFU/min
3C protease (EV assay); [28]
  % Loss: 42%
  Reaction rate Average P.C: 676.0 RFU/min
3C protease (EV assay); [29]
  % Loss: 100%
  Reaction rate Average P.C: −4.19 RFU/min
3C protease (EV assay); [30]
  % Loss: 75%
  Reaction rate Average P.C: 394.82 RFU/min
3C protease (EV assay)
  effect on reaction rate: loss in reaction rate
